# Test results from patent US20250304353A1, “ANTIMICROBIAL BOTTLE WITH ANTIMICROBIAL SEAL” (Microban Products Company, priority 2017, published 2025).
# Tested on: Aspergillus niger
# Assay: Anti-fungal efficacy of polypropylene cap, agar plate method AATCC 30 Part 3 (2017e)
# Assay type: cell-based
# Details: injection molded polypropylene cap with 2.0 wt % Microban IF1-5033-050 (0.1 wt % thiabendazole); MEA plates, up to 7 days at about 30° C.; two replicate sub-samples
# Method: The anti-fungal efficacy of the polypropylene cap containing thiabendazole was tested. The fungicidal activity was determined using the agar plate method AATCC 30 Part 3 (2017e). Individual plates of Malt Extract Agar (MEA) were inoculated with Aspergillus niger from primary stock cultures held at about 2° C. to about 8° C. and then incubated at about 30° C.±2° C. for up to 7 days to produce mature spores. A spore suspension was prepared from the plates in 10 mL aliquots of sterile distilled water (SDW) and filtered using glass wool. The spore suspension was adjusted using SDW so that it contained ≥10^5 spores mL^−1. Two replicate sub-samples (i.e., the polypropylene cap with thiabendazole) were placed on the surface of individual MEA plates. A 100 μL aliquot of the spore suspension of Aspergillus niger was spread over the surface of both the sub-sample and the surrounding media. The sample plates were incubated for up to 7 days at about 30° C.±2° C. […] An injection molded polypropylene cap treated with 2.0 wt % of Microban IF1-5033-050 (i.e., 0.1 wt % of thiabendazole) was tested with Aspergillus niger.
compound,measurement,value
c1ccc2[nH]c(-c3cscn3)nc2c1 [thiabendazole],fungal growth (microscopic and/or macroscopic) on sub-sample and surrounding media,No surface growth
